Where two headings read alike, the source gives them in different places.
Legend:
α4β2 nAChRs = α4β2 nAChRs (Rattus norvegicus, UniProt P09483+P12390); assay: biochemical; assay type: binding
[1] = Table 1, [3H]epibatidine binding, rat cerebral cortex
[2] = read-out: α4β2 [^3H]Epibatidine (Ki), Table 1, male rat cerebral cortex homogenate, 0.5-2 nM [3H]epibatidine, Ki from IC50 by Cheng-Prusoff

α4β2 nAChRs, sequence (P09483 31-630): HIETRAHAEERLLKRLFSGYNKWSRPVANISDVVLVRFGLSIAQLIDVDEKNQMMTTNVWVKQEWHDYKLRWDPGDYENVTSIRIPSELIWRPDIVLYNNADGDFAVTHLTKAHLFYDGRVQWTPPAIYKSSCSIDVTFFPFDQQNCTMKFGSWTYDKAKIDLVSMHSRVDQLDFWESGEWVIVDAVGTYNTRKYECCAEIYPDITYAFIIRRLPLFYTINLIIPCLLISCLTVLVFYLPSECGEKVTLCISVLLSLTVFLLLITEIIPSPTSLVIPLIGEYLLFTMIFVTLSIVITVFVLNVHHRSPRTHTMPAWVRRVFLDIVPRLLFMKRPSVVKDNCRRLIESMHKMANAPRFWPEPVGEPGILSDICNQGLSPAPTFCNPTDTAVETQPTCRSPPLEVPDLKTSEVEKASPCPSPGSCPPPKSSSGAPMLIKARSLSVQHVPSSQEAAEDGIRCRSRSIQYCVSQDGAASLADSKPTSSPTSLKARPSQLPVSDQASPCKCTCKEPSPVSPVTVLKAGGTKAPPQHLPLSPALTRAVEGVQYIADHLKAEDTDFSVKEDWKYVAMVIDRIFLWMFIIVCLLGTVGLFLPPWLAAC
α4β2 nAChRs, sequence (P12390 25-500): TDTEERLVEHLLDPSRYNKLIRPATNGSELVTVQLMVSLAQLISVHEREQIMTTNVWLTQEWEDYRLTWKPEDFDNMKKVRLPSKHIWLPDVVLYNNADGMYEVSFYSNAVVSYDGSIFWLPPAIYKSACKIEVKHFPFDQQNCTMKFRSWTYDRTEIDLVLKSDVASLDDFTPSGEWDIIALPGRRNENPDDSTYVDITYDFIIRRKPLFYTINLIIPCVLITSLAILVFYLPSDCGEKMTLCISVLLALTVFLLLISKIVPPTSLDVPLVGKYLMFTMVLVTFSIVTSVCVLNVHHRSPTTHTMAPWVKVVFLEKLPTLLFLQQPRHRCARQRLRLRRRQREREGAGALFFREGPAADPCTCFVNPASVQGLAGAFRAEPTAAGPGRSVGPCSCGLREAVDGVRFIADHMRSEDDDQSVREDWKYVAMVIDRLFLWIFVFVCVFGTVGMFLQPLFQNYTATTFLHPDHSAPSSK

Clc1ncc(C2CC3CCC2N3)cc1-c1ccccc1 (centres unmarked) [RTI-7527-2]
Hill Slope (α4β2 nAChRs; [1]): 0.81 ± 0.02
Ki (α4β2 nAChRs; [2]): 0.021 ± 0.005 nM

Ic1ncc(C2CC3CCC2N3)cc1-c1ccccc1 (centres unmarked) [RTI-7527-3]
Ki (α4β2 nAChRs): 0.019 ± 0.002 nM
Hill Slope (α4β2 nAChRs; [1]): 0.84 ± 0.02

Clc1ncc(C2CC3CCC2N3)cc1I (centres unmarked) [RTI-7527-4]
Ki (α4β2 nAChRs): 0.012 ± 0.0003 nM
Hill Slope (α4β2 nAChRs; [1]): 0.83 ± 0.03

Clc1cc(C2CC3CCC2N3)cnc1Cl (centres unmarked) [RTI-7527-5]
melting point: 75 to 80 °C
Ki (α4β2 nAChRs): 0.015 ± 0.001 nM
Hill Slope (α4β2 nAChRs; [1]): 0.87 ± 0.04

Nc1ncc(C2CC3CCC2N3)cc1I (stereo not drawn) [RTI-7527-24, 2-exo-[5′-(3′-Iodo-2′-aminopyridinyl)]-7-azabicyclo[2.2.1]-heptane]
Hill Slope (α4β2 nAChRs; Table 1, [3H]epibatidine binding, rat cerebral cortex, listed as 34): 1.08 ± 0.03
Ki (α4β2 nAChRs; [2]): 35.5 ± 5.4 nM

Brc1cc(C2CC3CCC2N3)cnc1I (centres unmarked) [RTI-7527-50]
Ki (α4β2 nAChRs): 0.027 ± 0.002 nM
Hill Slope (α4β2 nAChRs; [1]): 0.96 ± 0.05

Nc1ncc(C2CC3CCC2N3)cc1-c1ccccc1 (centres unmarked) [RTI-7527-51]
Ki (α4β2 nAChRs): 0.33 ± 0.05 nM
Hill Slope (α4β2 nAChRs; [1]): 0.93 ± 0.03

Clc1ncc(C2CC3CCC2N3)cc1Br (centres unmarked) [RTI-7527-53]
Hill Slope (α4β2 nAChRs; [1]): 0.95 ± 0.09
Ki (α4β2 nAChRs; [2]): 0.013 ± 0.001 nM

Nc1ncc(C2CC3CCC2N3)cc1I (centres unmarked) [RTI-7527-57]
Ki (α4β2 nAChRs): 1.47 ± 0.12 nM
Hill Slope (α4β2 nAChRs; Table 1, [3H]epibatidine binding, rat cerebral cortex, listed as 24): 1.07 ± 0.14

CON=C1C2CCC1C(c1ccc(Cl)nc1)C2 (centres unmarked) [compound 2]
Ki (α4β2 nAChRs): > 1000 nM

NC1C2CCC1C(c1ccc(Cl)nc1)C2 (centres unmarked) [compound 3]
Ki (α4β2 nAChRs): 8.2 ± 0.08 nM
Hill Slope (α4β2 nAChRs; [1]): 1.2 ± 0.04

Cc1nc(Cl)ccc1C1CC2CCC1N2 (centres unmarked) [compound 5]
Ki (α4β2 nAChRs): 256 ± 74 nM
Hill Slope (α4β2 nAChRs; [1]): 1.1 ± 0.03

CN1C2CCC1C(c1ccc(Cl)nc1)C2 (centres unmarked) [compound 11]
melting point: 100 to 102 °C
Ki (α4β2 nAChRs): 22.8 ± 0.001 nM
Hill Slope (α4β2 nAChRs; second table (structures A, B, C), [3H]epibatidine binding, rat cerebral cortex): 1.07 ± 0.05

Fc1ccc(C2CC3CCC2N3)cn1 (centres unmarked) [compound 13]
Hill Slope (α4β2 nAChRs; [1]): 0.9 ± 0.02
Ki (α4β2 nAChRs; [2]): 0.027 ± 0.001 nM

CN(C)c1ccc(C2CC3CCC2N3)cn1 (centres unmarked) [compound 19]
Hill Slope (α4β2 nAChRs; [1]): 1.0 ± 0.01
Ki (α4β2 nAChRs; [2]): 26.4 ± 1.4 nM

Oc1ncc(C2CC3CCC2N3)cc1-c1ccccc1 (centres unmarked) [compound 29]
Hill Slope (α4β2 nAChRs): 1.04 ± 0.07
Ki (α4β2 nAChRs): 51.9 ± 2 nM

Clc1cncc(C2CC3CCC2N3)c1 (centres unmarked) [compound 35]
Ki (α4β2 nAChRs): 0.12 ± 0.006 nM
Hill Slope (α4β2 nAChRs; [1]): 0.9 ± 0.03

Fc1cncc(C2CC3CCC2N3)c1 (centres unmarked) [compound 36]
Hill Slope (α4β2 nAChRs; [1]): 0.9 ± 0.01
Ki (α4β2 nAChRs; [2]): 0.037 ± 0.001 nM

Fc1ncc(C2CC3CCC2N3)cc1Cl (centres unmarked) [compound 37]
Ki (α4β2 nAChRs): 0.02 ± 0.0003 nM
Hill Slope (α4β2 nAChRs; [1]): 0.8 ± 0.004

Fc1cc(C2CC3CCC2N3)cnc1F (centres unmarked) [compound 38]
Ki (α4β2 nAChRs): 0.055 ± 0.001 nM
Hill Slope (α4β2 nAChRs; [1]): 1.0 ± 0.01

Fc1ncc(C2CC3CCC2N3)cc1I (centres unmarked) [compound 39]
Hill Slope (α4β2 nAChRs): 1.0 ± 0.05
Ki (α4β2 nAChRs): 0.076 ± 0.004 nM

Ic1cncc(C2CC3CCC2N3)c1 (centres unmarked) [compound 41]
Hill Slope (α4β2 nAChRs; [1]): 0.9 ± 0.02
Ki (α4β2 nAChRs; [2]): 0.059 ± 0.001 nM

Nc1ncc(C2CC3CCC2N3)cc1-c1cccc([N+](=O)[O-])c1 (centres unmarked) [compound 42]
Hill Slope (α4β2 nAChRs): 1.1 ± 0.09
Ki (α4β2 nAChRs): 0.047 ± 0.002 nM

COc1cccc(-c2cc(C3CC4CCC3N4)cnc2Cl)c1 (centres unmarked) [compound 45]
Ki (α4β2 nAChRs): 0.019 ± 0.005 nM
Hill Slope (α4β2 nAChRs; [1]): 0.8 ± 0.02

COc1cccc(-c2cncc(C3CC4CCC3N4)c2)c1 (centres unmarked) [compound 46]
Hill Slope (α4β2 nAChRs; [1]): 0.9 ± 0.03
Ki (α4β2 nAChRs; [2]): 0.43 ± 0.05 nM

Fc1ncc(C2CC3CCC2N3)cc1-c1ccccc1 (centres unmarked) [compound 47]
Ki (α4β2 nAChRs): 0.14 ± 0.07 nM
Hill Slope (α4β2 nAChRs; [1]): 1.1 ± 0.04

OC1C2CCC1C(c1ccc(Cl)nc1)C2 (centres unmarked) [compound 50]
Ki (α4β2 nAChRs): > 1000 nM

Nc1ccc(C2CC3CCC2C3)cn1 (centres unmarked) [compound 54]
Hill Slope (α4β2 nAChRs): 1.1
Ki (α4β2 nAChRs): 2200 nM

From patent US7615567B2, “Compounds and methods for promoting smoking cessation” (priority 2000, dated 2009)
